Test results: patent US20100160369A1, “S1P1 Agonists and Methods of Making And Using” (EXELIXIS, INC., priority 2008, published 2010)

Key:
S1P1 [1] = biological target: T1, S1P1 (Homo sapiens, UniProt P21453); assay: Tango β-arrestin Recruitment Assay in U2OS cells (Assay 2b); assay type: cell-based; design: linker with TEV protease (N1a) cleavage site (C); conditions: Tango β-arrestin Recruitment Assay, read-out: Assay 2b EC50
Method in brief: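 Agonist EC50 from percent activity relative to 1 μM S1P efficacy control, using background-subtracted 460/530 nm emission ratios. Compounds (max 1 μM, ten 3-fold dilutions) incubated overnight at 37 °C with serum-starved S1P1 U2OS reporter cells, followed by 2 h β-lactamase reagent at room temperature.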
Target sequence in this assay (P21453 whole entry): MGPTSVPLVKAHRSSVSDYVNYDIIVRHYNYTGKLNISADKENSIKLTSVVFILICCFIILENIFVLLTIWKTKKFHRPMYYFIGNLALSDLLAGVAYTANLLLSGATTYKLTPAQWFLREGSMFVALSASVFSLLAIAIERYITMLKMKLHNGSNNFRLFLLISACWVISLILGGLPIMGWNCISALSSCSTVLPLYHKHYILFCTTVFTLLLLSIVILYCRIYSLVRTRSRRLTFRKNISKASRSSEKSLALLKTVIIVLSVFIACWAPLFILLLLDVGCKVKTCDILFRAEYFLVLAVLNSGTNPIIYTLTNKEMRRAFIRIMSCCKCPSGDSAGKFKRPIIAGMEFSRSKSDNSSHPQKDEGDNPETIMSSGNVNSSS
Target sequence in this assay (P32121 whole entry partner): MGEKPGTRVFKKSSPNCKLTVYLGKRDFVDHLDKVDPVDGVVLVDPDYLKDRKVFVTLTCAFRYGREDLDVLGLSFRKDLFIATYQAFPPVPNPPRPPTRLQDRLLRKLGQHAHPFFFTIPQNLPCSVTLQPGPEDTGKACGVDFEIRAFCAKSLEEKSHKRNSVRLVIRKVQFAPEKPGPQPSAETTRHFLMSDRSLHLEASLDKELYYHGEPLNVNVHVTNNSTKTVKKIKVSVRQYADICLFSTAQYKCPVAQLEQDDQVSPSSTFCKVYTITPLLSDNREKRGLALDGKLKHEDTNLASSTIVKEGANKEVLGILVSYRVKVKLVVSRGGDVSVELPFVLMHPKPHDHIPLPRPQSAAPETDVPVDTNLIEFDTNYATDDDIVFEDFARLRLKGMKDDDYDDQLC

S1P1 [2] = biological target: T1, S1P1; assay: DELFIA GTP-Eu Binding Assay (Assay 3b); assay type: biochemical; design: purchased Lonza; host or cells: CHO cell membranes; conditions: read-out: Assay 3b EC50
Method in brief: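 CHO membranes expressing human S1P1 (40 μg/mL) incubated 30 min at room temperature with compound (10-point, 3-fold, top 10 μM, 1% DMSO) in HEPES buffer with 2 μM GDP, MgCl2, NaCl, saponin, then 30 min with 10 nM GTP-Eu. Time-resolved fluorescence (340/615 nm) after washing; percent activity relative to 1 μM S1P, EC50 from curve fit.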
Target sequence in this assay (P21453 whole entry): as the sequence (P21453 whole entry) above

For `O=C(O)CCc1cc(Cl)c(-c2nnc(-c3cn4cc(C(F)(F)F)cc(Br)c4n3)s2)cc1F` [Example 177, 3-(4-{5-[8-bromo-6-(trifluoromethyl)imidazo[1,2-a]pyridin-2-yl]-1,3,4-thiadiazol-2-yl}-5-chloro-2-fluorophenyl)propanoic acid], the EC50 (S1P1 [1]) was at most 0.1 µM and the EC50 (S1P1 [2]) was at most 0.1 µM.
Work on `C[C@H](CO)Oc1cc(Cl)c(-c2noc(-c3cn4cc(C(F)(F)F)cc(Cl)c4n3)n2)cc1F` [Example 93, (2R)-2-[(5-chloro-4-{5-[8-chloro-6-(trifluoromethyl)imidazo[1,2-a]pyridin-2-yl]-1,2,4-oxadiazol-3-yl}-2-fluorophenyl)oxy]propan-1-ol] yielded an EC50 (S1P1 [1]) of at most 0.1 µM and an EC50 (S1P1 [2]) of at most 0.1 µM.
`OCC(O)COc1cc(Cl)c(-c2noc(-c3cn4cc(C(F)(F)F)cc(Cl)c4n3)n2)cc1Cl` (stereo not drawn) [Example 208, 3-[(2,5-dichloro-4-{5-[8-chloro-6-(trifluoromethyl)imidazo[1,2-a]pyridin-2-yl]-1,2,4-oxadiazol-3-yl}phenyl)oxy]propane-1,2-diol] gave an EC50 (S1P1 [1]) of at most 0.1 µM and an EC50 (S1P1 [2]) of 0.1 to 0.5 µM.
In the case of `O=C(O)CCc1cc(Cl)c(-c2nc(-c3cn4cc(C(F)(F)F)cc(Cl)c4n3)no2)cc1F` [Example 233, 3-(5-chloro-4-{3-[8-chloro-6-(trifluoromethyl)imidazo[1,2-a]pyridin-2-yl]-1,2,4-oxadiazol-5-yl}-2-fluorophenyl)propanoic acid], the EC50 (S1P1 [1]) is reported as at most 0.1 µM and the EC50 (S1P1 [2]) is reported as 0.1 to 0.5 µM.
`CC(C)Oc1cc(Cl)c2nc(-c3nc(-c4cc(F)c(CCC(=O)O)cc4Cl)no3)cn2c1` [Example 301, 3-[5-chloro-4-(5-{8-chloro-6-[(1-methylethyl)oxy]imidazo[1,2-a]pyridin-2-yl}-1,2,4-oxadiazol-3-yl)-2-fluorophenyl]propanoic acid] showed an EC50 (S1P1 [1]) of at most 0.1 µM and an EC50 (S1P1 [2]) of at most 0.1 µM.
In the case of `O=C(O)CCc1cc(Cl)c(-c2nnc(-c3cn4cc(C(F)(F)F)cc(Cl)c4n3)s2)cc1F` [Example 176, 3-(5-chloro-4-{5-[8-chloro-6-(trifluoromethyl)imidazo[1,2-a]pyridin-2-yl]-1,3,4-thiadiazol-2-yl}-2-fluorophenyl)propanoic acid], the EC50 (S1P1 [1]) is reported as at most 0.1 µM and the EC50 (S1P1 [2]) is reported as at most 0.1 µM.
`O=C(O)CCc1cc(Cl)c(-c2noc(-c3cn4cc(C(F)(F)F)cc(Cl)c4n3)n2)cc1F` [Entry 24] showed an EC50 (S1P1 [1]) of at most 0.1 µM and an EC50 (S1P1 [2]) of at most 0.1 µM.
Compound `O=C(O)CCc1cc(Cl)c(-c2noc(-c3cn4cc(C(F)(F)F)cc(Br)c4n3)n2)cc1F` [Entry 49] has an EC50 (S1P1 [1]) of at most 0.1 µM and an EC50 (S1P1 [2]) of 0.1 to 0.5 µM.
With `Cc1cc(CCC(=O)O)c(Cl)cc1-c1noc(-c2cn3cc(C(F)(F)F)cc(Cl)c3n2)n1` [Entry 56] the EC50 (S1P1 [1]) was at most 0.1 µM and the EC50 (S1P1 [2]) was at most 0.1 µM.
For `O=C(O)CCc1cc(Cl)c(-c2noc(-c3cn4cc(I)cc(Cl)c4n3)n2)cc1F` [Example 302, 3-{5-chloro-4-[5-(8-chloro-6-iodoimidazo[1,2-a]pyridin-2-yl)-1,2,4-oxadiazol-3-yl]-2-fluorophenyl}propanoic acid], the EC50 (S1P1 [1]) was at most 0.1 µM and the EC50 (S1P1 [2]) was at most 0.1 µM.
For `OCCOc1cc(Cl)c(-c2noc(-c3cn4cc(C(F)(F)F)cc(Cl)c4n3)n2)cc1F` [Example 263, 2-[(5-chloro-4-{5-[8-chloro-6-(trifluoromethyl)imidazo[1,2-a]pyridin-2-yl]-1,2,4-oxadiazol-3-yl}-2-fluorophenyl)oxy]ethanol], the EC50 (S1P1 [1]) was at most 0.1 µM and the EC50 (S1P1 [2]) was 0.1 to 0.5 µM.
Work on `O=C(O)CCc1cc(Cl)c(-c2noc(-c3cn4cc(C(F)(F)F)cc(Cl)c4n3)n2)cc1Cl` [Example 242, 3-(2,5-dichloro-4-{5-[8-chloro-6-(trifluoromethyl)imidazo[1,2-a]pyridin-2-yl]-1,2,4-oxadiazol-3-yl}phenyl)propanoic acid] yielded an EC50 (S1P1 [1]) of at most 0.1 µM and an EC50 (S1P1 [2]) of at most 0.1 µM.
